Measured values reported in ChEMBL document CHEMBL1126861 (J Med Chem, 1993).
Where a SMILES comes first, the peptide text is derived from it.

What was measured:
Mu-type opioid receptor = Mu-type opioid receptor (Rattus norvegicus, UniProt P33535); assay: Tested for binding affinity against mu opioid receptor fby displacing [3H]- DAMGO radioligand from rat brain membrane preparations
[1] = biological target: Delta-type opioid receptor (Rattus norvegicus, UniProt P33533); assay: Tested for binding affinity against delta opioid receptor by displacing [3H]- DSLET radioligand from rat brain membrane preparations
Sequence of Delta-type opioid receptor (P33533 whole entry): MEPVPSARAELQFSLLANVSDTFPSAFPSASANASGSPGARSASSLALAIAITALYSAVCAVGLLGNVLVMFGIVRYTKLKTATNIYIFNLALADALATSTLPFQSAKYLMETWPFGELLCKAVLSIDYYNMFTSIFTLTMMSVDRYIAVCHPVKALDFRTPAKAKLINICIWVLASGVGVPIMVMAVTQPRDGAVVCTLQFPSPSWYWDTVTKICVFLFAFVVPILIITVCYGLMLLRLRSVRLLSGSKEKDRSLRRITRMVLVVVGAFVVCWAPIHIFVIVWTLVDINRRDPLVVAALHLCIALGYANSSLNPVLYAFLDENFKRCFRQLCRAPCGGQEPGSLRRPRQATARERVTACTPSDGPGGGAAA

Sequence of Mu-type opioid receptor (P33535 whole entry): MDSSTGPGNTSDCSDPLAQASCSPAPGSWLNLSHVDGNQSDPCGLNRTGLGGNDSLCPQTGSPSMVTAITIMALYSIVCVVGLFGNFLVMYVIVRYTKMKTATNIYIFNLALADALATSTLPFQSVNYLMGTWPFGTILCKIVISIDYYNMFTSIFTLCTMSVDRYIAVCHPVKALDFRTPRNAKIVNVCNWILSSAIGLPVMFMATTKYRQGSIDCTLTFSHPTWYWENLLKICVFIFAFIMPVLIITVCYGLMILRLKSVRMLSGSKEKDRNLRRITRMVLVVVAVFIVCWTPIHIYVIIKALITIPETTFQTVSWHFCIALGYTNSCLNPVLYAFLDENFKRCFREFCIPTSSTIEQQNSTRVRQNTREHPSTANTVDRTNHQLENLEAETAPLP

Compound | Ki (Mu-type opioid receptor) | Ki [1]
CC(C)[C@H](NC(=O)[C@H](CC(=O)O)NC(=O)[C@H](Cc1ccccc1)NC(=O)[C@@H](C)NC(=O)[C@@H](N)Cc1ccc(O)cc1)C(=O)N[C@H](C(=O)NCC(N)=O)C(C)C [DELTORPHIN C] | 3.93 µM | 6.43 nM
N[C@@H](Cc1ccc(O)cc1)C(=O)N1Cc2ccccc2C[C@H]1C(=O)N[C@@H](Cc1ccccc1)C(=O)N[C@@H](Cc1ccccc1)C(=O)O (HELM PEPTIDE1{Y.[Tic].F.F}$$$$V2.0) | 3.23 µM | 0.308 nM
N[C@@H](Cc1ccc(O)cc1)C(=O)N1Cc2ccccc2C[C@H]1C(=O)N[C@@H](Cc1ccccc1)C(=O)O (HELM PEPTIDE1{Y.[Tic].F}$$$$V2.0) | – | 1.94 nM
Oc1ccc2c3c1O[C@H]1c4[nH]c5ccccc5c4C[C@@]4(O)[C@@H](C2)N(CC2CC2)CC[C@]314 [NALTRINDOLE] | – | 0.182 nM
